“And” between values parts separate entries of the source, which are not always exact repeats. Equal values may be shown once. Inconclusive results and toxic doses are left out.
Tested on: L1210 leukemia ip in BDF1 mice, survival T/C
Assay: NCI In Vivo Anticancer Drug Screen. Data for tumor model L1210 Leukemia (intraperitoneal) in B6D2F1 (BDF1) mice
Conditions: endpoint: mean survival time, higher = longer survival
How it was run: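 Each compound was tested against a transplantable tumor grown in mice. The endpoint was survival, with treated animals benchmarked against vehicle controls as a simple ratio.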

[1] = dose: 150.0 mg/kg/injection, schedule: Q04DX003 (ip), vehicle: other
[2] = dose: 75.0 mg/kg/injection, schedule: Q01DX001 (ip), vehicle: other
[3] = dose: 150.0 mg/kg/injection, schedule: Q01DX001 (ip), vehicle: other
[4] = dose: 300.0 mg/kg/injection, schedule: Q01DX001 (ip), vehicle: other
[5] = dose: 100.0 mg/kg/injection, schedule: Q01DX009 (ip), vehicle: Klucel (hydroxypropylcellulose) (HPC)
[6] = dose: 200.0 mg/kg/injection, schedule: Q01DX009 (ip), vehicle: Klucel (hydroxypropylcellulose) (HPC)

CC(=O)Nc1ccn(C2OC(COC(C)=O)C(OC(C)=O)C2OC(C)=O)c(=O)n1 (stereo unspecified)
T/C (dose: 6.3 mg/kg/injection, schedule: Q## X090 (ip), vehicle: carboxymethylcellulose (CMC)): 94 % of control
T/C (dose: 12.5 mg/kg/injection, schedule: Q## X090 (ip), vehicle: carboxymethylcellulose (CMC)): 102 % of control
T/C (dose: 18.0 mg/kg/injection, schedule: Q03HX024 (ip), vehicle: other): 114 % of control
T/C (dose: 25.0 mg/kg/injection, schedule: Q## X090 (ip), vehicle: carboxymethylcellulose (CMC)): 97 % of control
T/C (dose: 50.0 mg/kg/injection, schedule: Q## X090 (ip), vehicle: carboxymethylcellulose (CMC)): 102 % of control
T/C (dose: 53.0 mg/kg/injection, schedule: Q01DX Z (ip), vehicle: carboxymethylcellulose (CMC)): 106 % of control
T/C (dose: 75.0 mg/kg/injection, schedule: Q03HX024 (ip), vehicle: other): 168 % of control
T/C (dose: 79.0 mg/kg/injection, schedule: Q01DX Z (ip), vehicle: carboxymethylcellulose (CMC)): 107 % of control
T/C (dose: 119.0 mg/kg/injection, schedule: Q01DX Z (ip), vehicle: carboxymethylcellulose (CMC)): 109 % of control
T/C (dose: 125.0 mg/kg/injection, schedule: Q01DX009 (oral), vehicle: carboxymethylcellulose (CMC)): 115 % of control
T/C (dose: 125.0 mg/kg/injection, schedule: Q03HX024 (oral), vehicle: carboxymethylcellulose (CMC)): 111 % of control
T/C (dose: 125.0 mg/kg/injection, schedule: Q03HX024 (oral), vehicle: water): 123 % of control
T/C (dose: 150.0 mg/kg/injection, schedule: Q03HX024 (ip), vehicle: other): 195 % of control
T/C [1]: 108 % of control
T/C (dose: 178.0 mg/kg/injection, schedule: Q01DX Z (ip), vehicle: carboxymethylcellulose (CMC)): 119 % of control
T/C (dose: 178.0 mg/kg/injection, schedule: Q01DX Z (ip), vehicle: saline): 116 % of control
T/C (dose: 200.0 mg/kg/injection, schedule: Q01DX001 (ip), vehicle: carboxymethylcellulose (CMC)): 101 % of control
T/C (dose: 200.0 mg/kg/injection, schedule: Q01DX010 (oral), vehicle: carboxymethylcellulose (CMC)): 112 % of control
T/C (dose: 250.0 mg/kg/injection, schedule: Q03HX024 (oral), vehicle: carboxymethylcellulose (CMC)): 113 % of control
T/C (dose: 250.0 mg/kg/injection, schedule: Q03HX024 (oral), vehicle: water): 121 % of control
T/C (dose: 300.0 mg/kg/injection, schedule: Q03HX024 (ip), vehicle: other): 228 % of control
T/C (dose: 300.0 mg/kg/injection, schedule: Q04DX003 (ip), vehicle: other): 115 % of control
T/C (dose: 400.0 mg/kg/injection, schedule: Q01DX001 (ip), vehicle: carboxymethylcellulose (CMC)): 103 % of control
T/C (dose: 400.0 mg/kg/injection, schedule: Q01DX Z (ip), vehicle: saline): 163 % of control
T/C (dose: 500.0 mg/kg/injection, schedule: Q03HX024 (oral), vehicle: carboxymethylcellulose (CMC)): 124 % of control
T/C (dose: 600.0 mg/kg/injection, schedule: Q01DX009 (ip), vehicle: other): 177 % of control and 184 % of control
T/C (dose: 600.0 mg/kg/injection, schedule: Q01DX Z (ip), vehicle: carboxymethylcellulose (CMC)): 124 % of control and 246 % of control
T/C (dose: 600.0 mg/kg/injection, schedule: Q01DX Z (ip), vehicle: saline): 166 % of control
T/C (dose: 800.0 mg/kg/injection, schedule: Q01DX001 (ip), vehicle: carboxymethylcellulose (CMC)): 101 % of control
T/C (dose: 900.0 mg/kg/injection, schedule: Q01DX Z (ip), vehicle: carboxymethylcellulose (CMC)): 175 % of control
T/C (dose: 1000.0 mg/kg/injection, schedule: Q03HX024 (oral), vehicle: carboxymethylcellulose (CMC)): 122 % of control
T/C (dose: 1000.0 mg/kg/injection, schedule: Q03HX024 (oral), vehicle: water): 208 % of control
T/C (dose: 1200.0 mg/kg/injection, schedule: Q01DX009 (ip), vehicle: other): 213 % of control and 228 % of control
T/C (dose: 1200.0 mg/kg/injection, schedule: Q04DX003 (ip), vehicle: other): 159 % of control
T/C (dose: 1350.0 mg/kg/injection, schedule: Q01DX Z (ip), vehicle: carboxymethylcellulose (CMC)): 295 % of control
T/C (dose: 1600.0 mg/kg/injection, schedule: Q01DX001 (ip), vehicle: carboxymethylcellulose (CMC)): 124 % of control
T/C (dose: 1600.0 mg/kg/injection, schedule: Q01DX010 (oral), vehicle: carboxymethylcellulose (CMC)): 214 % of control
T/C (dose: 2000.0 mg/kg/injection, schedule: Q03HX024 (oral), vehicle: water): 226 % of control
T/C (dose: 2400.0 mg/kg/injection, schedule: Q01DX009 (ip), vehicle: other): 112 % of control
T/C (dose: 2400.0 mg/kg/injection, schedule: Q04DX003 (ip), vehicle: other): 214 % of control

CCC1(CCC(C)C)C(=O)NC(=S)N(C)C1=O (stereo unspecified)
T/C (dose: 75.0 mg/kg/injection, schedule: Q01DX001 (ip), vehicle: carboxymethylcellulose (CMC)): 89 % of control
T/C [2]: 97 % of control
T/C (dose: 150.0 mg/kg/injection, schedule: Q01DX001 (ip), vehicle: carboxymethylcellulose (CMC)): 89 % of control
T/C [3]: 103 % of control
T/C (dose: 300.0 mg/kg/injection, schedule: Q01DX001 (ip), vehicle: carboxymethylcellulose (CMC)): 91 % of control
T/C [4]: 121 % of control

O[Si](O)(c1ccccc1)c1ccccc1
T/C (dose: 100.0 mg/kg/injection, schedule: Q04DX002 (ip), vehicle: saline with Tween-80): 92 % of control
T/C (dose: 200.0 mg/kg/injection, schedule: Q04DX002 (ip), vehicle: saline with Tween-80): 87 % of control
T/C (dose: 400.0 mg/kg/injection, schedule: Q04DX002 (ip), vehicle: saline with Tween-80): 92 % of control

c1ccc(C(c2ccccc2)c2ccc(C(c3ccccc3)(c3ccccc3)c3ccccc3)cc2)cc1
T/C (dose: 87.5 mg/kg/injection, schedule: Q04DX003 (ip), vehicle: Klucel (hydroxypropylcellulose) (HPC)): 88 % of control

CC(C)(C)NC(=O)CCC(=O)O
T/C (dose: 75.0 mg/kg/injection, schedule: Q04DX002 (ip), vehicle: Klucel (hydroxypropylcellulose) (HPC)): 89 % of control
T/C (dose: 150.0 mg/kg/injection, schedule: Q04DX002 (ip), vehicle: Klucel (hydroxypropylcellulose) (HPC)): 92 % of control
T/C (dose: 300.0 mg/kg/injection, schedule: Q04DX002 (ip), vehicle: Klucel (hydroxypropylcellulose) (HPC)): 100 % of control

O=C1C2C3c4ccccc4C(C2C(=O)N1c1ccc(Cl)cc1)[n+]1ccccc13 (stereo unspecified)
T/C [2]: 96 % of control
T/C [3]: 103 % of control

NC(C(=O)O)c1ccccc1C(=O)O (stereo unspecified)
T/C (dose: 100.0 mg/kg/injection, schedule: Q04DX003 (ip), vehicle: saline with Tween-80): 96 % of control
T/C (dose: 200.0 mg/kg/injection, schedule: Q04DX003 (ip), vehicle: saline with Tween-80): 103 % of control
T/C (dose: 400.0 mg/kg/injection, schedule: Q04DX003 (ip), vehicle: saline with Tween-80): 103 % of control

CCC1C(CC(=O)O)=C(C)NC(C)=C1CC(=O)O
T/C [5]: 109 % of control
T/C [6]: 90 % of control

[Cu+2].[NH-]C(CS)C(=O)O.[NH-]C(CS)C(=O)O (stereo unspecified)
T/C (dose: 3.13 mg/kg/injection, schedule: Q04DX002 (ip), vehicle: saline with Tween-80): 97 % of control
T/C (dose: 6.25 mg/kg/injection, schedule: Q04DX002 (ip), vehicle: saline with Tween-80): 93 % of control and 90 % of control
T/C (dose: 25.0 mg/kg/injection, schedule: Q04DX002 (ip), vehicle: saline with Tween-80): 90 % of control
T/C (dose: 125.0 mg/kg/injection, schedule: Q04DX002 (ip), vehicle: saline with Tween-80): 93 % of control

COc1ccc2nc3cc(Cl)ccc3c(Nc3ccc(O)c(CN4CCN(C)CC4)c3)c2c1
T/C [2]: 96 % of control
T/C (dose: 75.0 mg/kg/injection, schedule: Q04DX003 (ip), vehicle: other): 94 % of control
T/C [3]: 100 % of control
T/C [1]: 97 % of control
T/C [4]: 97 % of control

Cc1[nH]c(=S)[nH]c(=O)c1CN(CCO)CCO
T/C (dose: 50.0 mg/kg/injection, schedule: Q01DX001 (ip), vehicle: Klucel (hydroxypropylcellulose) (HPC)): 123 % of control
T/C (dose: 50.0 mg/kg/injection, schedule: Q01DX009 (ip), vehicle: Klucel (hydroxypropylcellulose) (HPC)): 96 % of control
T/C (dose: 50.0 mg/kg/injection, schedule: Q04DX003 (ip), vehicle: Klucel (hydroxypropylcellulose) (HPC)): 108 % of control
T/C (dose: 100.0 mg/kg/injection, schedule: Q01DX001 (ip), vehicle: Klucel (hydroxypropylcellulose) (HPC)): 101 % of control
T/C [5]: 101 % of control
T/C (dose: 100.0 mg/kg/injection, schedule: Q04DX003 (ip), vehicle: Klucel (hydroxypropylcellulose) (HPC)): 102 % of control
T/C (dose: 200.0 mg/kg/injection, schedule: Q01DX001 (ip), vehicle: Klucel (hydroxypropylcellulose) (HPC)): 101 % of control
T/C [6]: 123 % of control
T/C (dose: 200.0 mg/kg/injection, schedule: Q04DX003 (ip), vehicle: Klucel (hydroxypropylcellulose) (HPC)): 91 % of control

O=S(=O)(Nc1ccc(Br)c2ccccc12)c1ccccc1
T/C (dose: 25.0 mg/kg/injection, schedule: Q01DX001 (ip), vehicle: saline sonified): 97 % of control
T/C (dose: 50.0 mg/kg/injection, schedule: Q01DX001 (ip), vehicle: saline sonified): 92 % of control
T/C (dose: 100.0 mg/kg/injection, schedule: Q01DX001 (ip), vehicle: saline sonified): 92 % of control

From PubChem BioAssay AID248 (DTP/NCI, 2004)
